The source of these data is ChEMBL document CHEMBL3259567, “Novel 2,4-Diarylaminopyrimidine Analogues (DAAPalogues) Showing Potent c-Met/ALK Multikinase Inhibitory Activities” (ACS Med Chem Lett, 2014).

SMILES strings stand for the structures. Activity calls are given as the source filed them. The rule behind the calls is not given here.

The target in series [1] is D(1B) dopamine receptor (Homo sapiens, UniProt P21918). Description: Antagonist activity at dopamine D5 receptor (unknown origin).
For series [2], the target named is D(1A) dopamine receptor (Homo sapiens, UniProt P21728). Description: Antagonist activity at dopamine D1 receptor (unknown origin).
For series [3], the target named is ALK tyrosine kinase receptor (Homo sapiens, UniProt Q9UM73).
The target in series [4] is Hepatocyte growth factor receptor (Homo sapiens, UniProt P08581).
The nature of series [5]: Oral bioavailability in mouse at 20 mg/kg. In kind it is ADME, organism-based. Particulars: in vivo.
Series [6] in a line: Clearance in mouse at 10 mg/kg, iv. Particulars: in vivo. In kind it is ADME, organism-based. Details: dose 10 mg/kg, route intravenous.
For series [7], the target named is Macrophage-stimulating protein receptor (Homo sapiens) (UniProt Q04912). Description: Inhibition of purified recombinant RON (unknown origin) at 1 uM after 60 mins by ELISA.
Series [8] has as its target Fibroblast growth factor receptor 1 (Homo sapiens) (UniProt P11362). Description: Inhibition of purified recombinant FGFR1 (unknown origin) at 1 uM after 60 mins by ELISA.
A short description of series [9]: cells. As to conditions: Homo sapiens, KARPAS-299, 72 h.
Description: Antiproliferative activity against ALK-dependent human KARPAS299 cells after 72 hrs
Series [10] deals with Proto-oncogene tyrosine-protein kinase Src (Homo sapiens) (UniProt P12931). As to the kind of experiment: Inhibition of purified recombinant c-SRC (unknown origin) at 1 uM after 60 mins by ELISA.
Series [11] can be described thus: AUC (0 to infinity) in mouse at 20 mg/kg, po. Type of series: ADME, organism-based. Also noted: time infinity, dose 20 mg/kg, route oral. As to conditions: plasma.
Series [12] can be described thus: Half life in mouse at 10 mg/kg, iv. Type of series: ADME, organism-based. Also noted: dose 10 mg/kg, route intravenous. Particulars: in vivo.
Series [13] has as its system BaF3. As to the kind of experiment: Antitumor activity against mouse BAF3 cells expressing EML4-ALK fusion protein allografted in nude mouse assessed as tumor growth inhibition at 1 mg/kg, po qd for 2 weeks relative to vehicle-treated control. Type of series: functional. Particulars: BaF3, 336 h, read-out: TGI.
Series [14] addresses Proto-oncogene tyrosine-protein kinase receptor Ret (Homo sapiens) (UniProt P07949). Description: Inhibition of purified recombinant RET (unknown origin) at 1 uM after 60 mins by ELISA.
Series [15] can be described thus: cells. As to conditions: Homo sapiens, EBC-1, 72 h.
Description: Antiproliferative activity against cMET-amplified human EBC1 cells after 72 hrs
Series [16] relates to BaF3. Description: Antitumor activity against mouse BAF3 cells expressing EML4-ALK fusion protein allografted in nude mouse assessed as tumor growth inhibition at 0.3 to 1 mg/kg, po qd for 2 weeks relative to vehicle-treated control. Type of series: functional, organism-based.

ALK tyrosine kinase receptor, sequence (Q9UM73 whole entry): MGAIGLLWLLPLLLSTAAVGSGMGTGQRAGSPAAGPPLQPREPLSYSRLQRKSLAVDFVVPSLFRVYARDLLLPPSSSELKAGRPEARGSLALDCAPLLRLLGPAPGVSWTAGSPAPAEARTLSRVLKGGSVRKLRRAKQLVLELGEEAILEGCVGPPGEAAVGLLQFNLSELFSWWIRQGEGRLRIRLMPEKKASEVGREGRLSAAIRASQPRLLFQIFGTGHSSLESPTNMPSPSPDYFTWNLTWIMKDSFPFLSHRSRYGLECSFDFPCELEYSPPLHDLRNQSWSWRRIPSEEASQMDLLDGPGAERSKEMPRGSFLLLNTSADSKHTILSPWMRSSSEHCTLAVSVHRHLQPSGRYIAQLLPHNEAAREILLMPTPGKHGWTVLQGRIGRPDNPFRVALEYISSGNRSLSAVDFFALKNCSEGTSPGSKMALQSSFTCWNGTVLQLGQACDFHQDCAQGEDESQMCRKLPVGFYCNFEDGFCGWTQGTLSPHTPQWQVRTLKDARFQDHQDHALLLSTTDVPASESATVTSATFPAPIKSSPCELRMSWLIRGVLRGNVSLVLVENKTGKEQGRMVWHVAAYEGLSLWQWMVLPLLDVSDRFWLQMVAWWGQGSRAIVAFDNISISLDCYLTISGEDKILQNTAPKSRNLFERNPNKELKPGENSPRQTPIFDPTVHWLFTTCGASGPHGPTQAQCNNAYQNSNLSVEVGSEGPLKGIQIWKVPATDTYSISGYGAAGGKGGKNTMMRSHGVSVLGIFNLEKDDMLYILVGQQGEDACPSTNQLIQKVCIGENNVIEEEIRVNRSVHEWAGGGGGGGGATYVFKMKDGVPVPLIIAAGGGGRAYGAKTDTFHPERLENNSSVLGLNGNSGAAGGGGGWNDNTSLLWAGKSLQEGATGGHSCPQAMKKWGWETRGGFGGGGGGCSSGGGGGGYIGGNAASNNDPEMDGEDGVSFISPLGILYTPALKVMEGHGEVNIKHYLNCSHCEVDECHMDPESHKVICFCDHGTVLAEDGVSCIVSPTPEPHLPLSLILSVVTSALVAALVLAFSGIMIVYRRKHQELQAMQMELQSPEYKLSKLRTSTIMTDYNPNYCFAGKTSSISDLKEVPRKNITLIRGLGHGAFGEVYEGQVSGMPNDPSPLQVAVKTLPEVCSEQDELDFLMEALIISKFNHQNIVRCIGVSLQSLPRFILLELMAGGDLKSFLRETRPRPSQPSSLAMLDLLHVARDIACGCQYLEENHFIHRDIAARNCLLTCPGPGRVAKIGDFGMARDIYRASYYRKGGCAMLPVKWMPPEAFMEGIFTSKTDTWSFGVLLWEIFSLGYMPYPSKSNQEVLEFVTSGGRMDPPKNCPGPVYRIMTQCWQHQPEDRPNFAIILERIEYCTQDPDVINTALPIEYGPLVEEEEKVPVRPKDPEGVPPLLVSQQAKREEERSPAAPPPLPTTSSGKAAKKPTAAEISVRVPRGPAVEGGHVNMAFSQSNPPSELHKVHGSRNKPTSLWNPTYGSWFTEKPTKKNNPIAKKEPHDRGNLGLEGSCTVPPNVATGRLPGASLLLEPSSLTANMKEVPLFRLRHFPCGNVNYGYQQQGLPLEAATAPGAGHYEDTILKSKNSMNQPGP
Hepatocyte growth factor receptor, sequence (P08581 whole entry): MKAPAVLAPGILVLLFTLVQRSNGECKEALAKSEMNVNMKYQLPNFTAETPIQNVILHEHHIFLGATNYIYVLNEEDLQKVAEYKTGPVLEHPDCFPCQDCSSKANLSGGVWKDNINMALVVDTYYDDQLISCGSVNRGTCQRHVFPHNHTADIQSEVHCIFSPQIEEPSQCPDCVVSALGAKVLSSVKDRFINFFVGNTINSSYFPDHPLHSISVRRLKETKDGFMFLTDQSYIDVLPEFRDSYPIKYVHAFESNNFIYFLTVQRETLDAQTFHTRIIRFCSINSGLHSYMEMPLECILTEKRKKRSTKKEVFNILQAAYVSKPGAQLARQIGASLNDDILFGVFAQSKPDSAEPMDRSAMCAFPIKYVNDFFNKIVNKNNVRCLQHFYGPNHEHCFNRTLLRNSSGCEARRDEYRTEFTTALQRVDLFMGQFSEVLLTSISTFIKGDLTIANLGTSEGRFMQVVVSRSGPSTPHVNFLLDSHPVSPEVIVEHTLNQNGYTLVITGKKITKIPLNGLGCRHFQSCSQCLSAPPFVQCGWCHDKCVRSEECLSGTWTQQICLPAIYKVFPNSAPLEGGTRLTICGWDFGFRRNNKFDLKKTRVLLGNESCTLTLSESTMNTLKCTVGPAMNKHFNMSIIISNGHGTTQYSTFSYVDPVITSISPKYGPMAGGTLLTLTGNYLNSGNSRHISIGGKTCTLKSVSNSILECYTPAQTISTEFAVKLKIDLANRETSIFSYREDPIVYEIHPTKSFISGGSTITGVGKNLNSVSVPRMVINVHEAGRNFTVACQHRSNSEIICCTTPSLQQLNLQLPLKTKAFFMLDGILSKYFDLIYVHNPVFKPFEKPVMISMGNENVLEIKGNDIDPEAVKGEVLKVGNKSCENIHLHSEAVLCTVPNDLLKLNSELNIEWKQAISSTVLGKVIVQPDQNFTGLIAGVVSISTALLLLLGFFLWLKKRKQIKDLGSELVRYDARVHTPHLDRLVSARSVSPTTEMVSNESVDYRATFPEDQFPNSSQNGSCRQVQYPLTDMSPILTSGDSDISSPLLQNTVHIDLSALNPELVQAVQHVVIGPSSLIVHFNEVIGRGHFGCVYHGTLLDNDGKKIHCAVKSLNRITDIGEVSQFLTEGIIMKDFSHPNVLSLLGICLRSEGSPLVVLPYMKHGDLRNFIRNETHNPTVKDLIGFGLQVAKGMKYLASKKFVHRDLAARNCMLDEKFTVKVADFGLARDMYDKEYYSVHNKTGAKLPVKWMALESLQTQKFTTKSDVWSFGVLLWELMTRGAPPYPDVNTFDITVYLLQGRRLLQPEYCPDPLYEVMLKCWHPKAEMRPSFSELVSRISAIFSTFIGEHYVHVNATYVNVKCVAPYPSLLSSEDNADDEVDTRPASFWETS
Macrophage-stimulating protein receptor (Homo sapiens), sequence (Q04912 25-304 limits assumed): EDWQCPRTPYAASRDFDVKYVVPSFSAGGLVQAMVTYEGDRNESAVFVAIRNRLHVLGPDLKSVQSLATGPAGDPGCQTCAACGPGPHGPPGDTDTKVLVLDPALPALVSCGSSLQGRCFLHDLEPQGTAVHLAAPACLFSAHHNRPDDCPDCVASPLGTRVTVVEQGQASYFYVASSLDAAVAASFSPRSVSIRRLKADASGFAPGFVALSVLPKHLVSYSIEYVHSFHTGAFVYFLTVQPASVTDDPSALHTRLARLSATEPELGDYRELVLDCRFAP
Macrophage-stimulating protein receptor (Homo sapiens), sequence (Q04912 310-1400 limits assumed): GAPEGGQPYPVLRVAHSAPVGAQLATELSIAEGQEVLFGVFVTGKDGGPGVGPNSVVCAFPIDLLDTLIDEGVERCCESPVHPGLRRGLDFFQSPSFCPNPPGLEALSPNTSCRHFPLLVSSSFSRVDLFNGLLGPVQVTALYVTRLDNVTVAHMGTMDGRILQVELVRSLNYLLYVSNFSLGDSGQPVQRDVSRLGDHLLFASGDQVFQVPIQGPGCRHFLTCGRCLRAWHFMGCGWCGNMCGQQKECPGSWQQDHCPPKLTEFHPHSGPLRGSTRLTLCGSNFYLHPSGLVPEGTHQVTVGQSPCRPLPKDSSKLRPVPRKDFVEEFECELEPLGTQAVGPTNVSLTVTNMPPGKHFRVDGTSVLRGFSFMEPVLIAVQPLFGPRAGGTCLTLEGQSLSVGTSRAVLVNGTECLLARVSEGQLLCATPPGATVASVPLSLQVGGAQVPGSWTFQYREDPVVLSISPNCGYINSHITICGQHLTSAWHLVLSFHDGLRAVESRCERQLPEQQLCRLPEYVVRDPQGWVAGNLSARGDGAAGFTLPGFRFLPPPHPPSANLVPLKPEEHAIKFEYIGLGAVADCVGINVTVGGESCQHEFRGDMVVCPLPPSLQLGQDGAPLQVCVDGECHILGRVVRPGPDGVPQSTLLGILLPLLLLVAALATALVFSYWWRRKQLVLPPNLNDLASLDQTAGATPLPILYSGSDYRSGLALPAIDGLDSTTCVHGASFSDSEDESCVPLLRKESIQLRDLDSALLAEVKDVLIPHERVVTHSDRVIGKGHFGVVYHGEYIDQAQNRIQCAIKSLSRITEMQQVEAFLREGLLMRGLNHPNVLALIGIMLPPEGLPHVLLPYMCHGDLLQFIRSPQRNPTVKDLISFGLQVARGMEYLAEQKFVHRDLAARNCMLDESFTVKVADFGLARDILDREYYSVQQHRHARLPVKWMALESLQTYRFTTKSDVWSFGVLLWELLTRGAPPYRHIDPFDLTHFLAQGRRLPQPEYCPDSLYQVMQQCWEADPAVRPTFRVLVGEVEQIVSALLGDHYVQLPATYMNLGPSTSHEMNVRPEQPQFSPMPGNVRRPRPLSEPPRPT
Proto-oncogene tyrosine-protein kinase Src (Homo sapiens), sequence (P12931 2-536 limits assumed): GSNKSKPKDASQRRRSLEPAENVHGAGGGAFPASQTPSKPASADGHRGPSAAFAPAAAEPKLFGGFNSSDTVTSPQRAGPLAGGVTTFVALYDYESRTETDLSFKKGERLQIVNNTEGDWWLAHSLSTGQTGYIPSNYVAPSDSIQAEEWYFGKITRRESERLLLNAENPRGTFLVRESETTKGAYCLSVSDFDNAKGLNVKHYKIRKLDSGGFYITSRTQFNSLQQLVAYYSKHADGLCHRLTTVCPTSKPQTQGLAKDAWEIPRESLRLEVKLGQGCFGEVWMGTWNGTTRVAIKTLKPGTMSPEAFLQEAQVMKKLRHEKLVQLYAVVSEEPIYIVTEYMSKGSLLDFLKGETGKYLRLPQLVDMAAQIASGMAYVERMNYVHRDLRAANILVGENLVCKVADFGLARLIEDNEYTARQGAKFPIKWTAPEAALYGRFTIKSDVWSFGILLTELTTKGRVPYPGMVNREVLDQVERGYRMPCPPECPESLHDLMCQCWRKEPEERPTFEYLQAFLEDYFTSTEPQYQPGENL

With `CN1CCc2ccccc2Cc2[nH]c3ccccc3c2CC1`, the Ki in series [1] and in series [2] was under 0.01 µM each time.
As for `CNC(=O)c1ccccc1Nc1nc(Nc2ccc3c(c2)C(C)CNCC3)ncc1Cl` (centres undefined), the values for the IC50 in series [3] and in series [4] were 0.0079 µM and 0.0064 µM, respectively.
`CNC(=O)c1ccccc1Nc1nc(Nc2ccc3c(c2)C(C)CN(C)CC3)nc2sccc12` (centres undefined): the IC50 in series [3] and in series [4] was over 1 µM in each case.
As for `CNC(=O)c1ccccc1Nc1nc(Nc2ccc3c(c2)C(C)CN(C)CC3)nc(F)c1Cl` (centres undefined), the IC50 in [3] and in series [4] was over 1 µM throughout.
Take `CNC(=O)c1ccccc1Nc1nc(Nc2ccc3c(c2)C(C)CN(C)CC3)nc2cccnc12` (centres undefined): the IC50 in [3] and in series [4] was over 1 µM in each case.
For `CNC(=O)c1ccccc1Nc1nc(Nc2ccc3c(c2)C(C)CN(C)CC3)ncc1Cl` (racemic), the bioavailability in series [5] is 20%. This compound also had a clearance in series [6] of 33.3 mL/min/kg. For the same compound, the inhibition result in series [7], in series [8], in series [10] and in series [14] was “Active” each time. The values for the IC50 in series [9] and in [15] were 0.014 µM and 0.007 µM, respectively. This compound also displayed an AUC(0-inf) in [11] of 5500 ng·h/mL. The half-life in [12] is 2.2 h. The inhibition in vivo at 1 mg/kg in series [13] came to 60.6%.
On to `CNC(=O)c1ccccc1Nc1nc(Nc2ccc3c(c2)C(c2ccccc2)CN(C)CC3)ncc1Cl` (racemic), for which the bioavailability in series [5] came to 73%. The clearance in series [6] was 33.3 mL/min/kg. Further, the inhibition entry in series [7], in series [8], in [10] and in series [14] was “Active” throughout. In [9], this compound had a half-maximal inhibitory concentration (IC50) of 0.03 µM. The TGI entry in series [16] was “inactive”. This compound also displayed a total exposure AUC(0-inf) in [11] of 9070 ng·h/mL. Besides, in [12], the half-life is 2.2 h.
For the compound `CNC(=O)c1ccccc1Nc1nc(Nc2ccc3c(c2)C(C)CN(C)CC3)nc(NC)c1Cl` (centres undefined), the IC50 in series [3] and in series [4] was over 1 µM in each case.
`CNC(=O)c1ccccc1Nc1nc(Nc2ccc3c(c2)C(C)CN(C)CC3)nc(N2CCOCC2)c1Cl` (centres undefined): the 50% inhibitory concentration (IC50) in series [3] and in series [4] was over 1 µM in each case.
In the case of `CC1CN(C)CCc2ccc(Nc3ncc(Cl)c(Nc4ccccc4C(=O)N4CCOCC4)n3)cc21` (centres undefined), the IC50 in series [3] and in series [4] was over 1 µM throughout.
Take `CNC(=O)c1ccccc1Nc1nc(Nc2ccc3c(c2)C(C)CN(C)CC3)nc2ccccc12` (centres undefined): the IC50 in series [3] and in series [4] was over 1 µM in each case.
